Data as given in paper PMC5478727, “A Novel Small Molecule GDNF Receptor RET Agonist, BT13, Promotes Neurite Growth from Sensory Neurons in Vitro and Attenuates Experimental Neuropathy in the Rat” (Frontiers in Pharmacology, 2017).

Legend:
[1] = target: opioid receptor delta (DOP) (Homo sapiens, UniProt P41143); assay: CEREP Delta (DOP) (h) (agonist radioligand); type: binding; details: BT13 1 μM; Cat. No. 0114; average of duplicate; read-out: Percentage of inhibition/potentiation from control
CYP1A2 = CYP1A2 (Homo sapiens, UniProt P05177); assay: CYP inhibition, fluorescent assay; type: biochemical; details: read-out: Inhibition of CYP isoforms (IC50), CYP1A2
dopamine transporter = dopamine transporter (Homo sapiens, UniProt Q01959); assay: biochemical; details: read-out: Percentage of inhibition/potentiation from control
Sequence of dopamine transporter (Q01959 whole entry): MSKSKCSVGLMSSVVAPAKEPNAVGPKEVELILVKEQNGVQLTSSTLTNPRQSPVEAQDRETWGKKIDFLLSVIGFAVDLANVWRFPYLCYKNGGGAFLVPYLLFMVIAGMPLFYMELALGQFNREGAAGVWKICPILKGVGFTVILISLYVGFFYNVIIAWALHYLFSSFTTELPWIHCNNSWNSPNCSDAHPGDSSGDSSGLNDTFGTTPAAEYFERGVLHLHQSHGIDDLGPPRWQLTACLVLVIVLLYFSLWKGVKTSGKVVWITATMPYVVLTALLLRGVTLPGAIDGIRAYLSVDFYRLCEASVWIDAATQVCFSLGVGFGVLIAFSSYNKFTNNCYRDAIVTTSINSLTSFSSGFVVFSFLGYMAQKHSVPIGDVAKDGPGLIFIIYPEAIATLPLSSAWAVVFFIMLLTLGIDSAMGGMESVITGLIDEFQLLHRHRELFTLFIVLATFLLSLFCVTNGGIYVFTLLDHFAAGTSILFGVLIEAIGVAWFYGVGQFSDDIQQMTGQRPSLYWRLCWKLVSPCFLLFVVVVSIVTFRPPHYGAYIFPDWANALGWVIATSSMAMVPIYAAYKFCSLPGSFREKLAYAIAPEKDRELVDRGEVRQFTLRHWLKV

[2] = tested on: Akt and Erk phosphorylation (RET downstream targets); assay: Erk1/2 and Akt phosphorylation assay in MG87RET fibroblasts; type: cell-based, murine; details: 25–50 μM; in the presence and absence of GFRα3 co-receptor
GFRα3/RET = target: T1, GFRα3/RET (Homo sapiens, UniProt P07949); assay: Luciferase reporter-gene assay (PathDetect Elk-1), GFRα3/RET reporter cells; type: cell-based; details: GFRα3/RET reporter cell line
T1 construct: full-length human RET (long isoform) in pCR3.1; expressed in transfected cells; host or cells: MG87 murine fibroblasts (MG87RET + PathDetect Elk-1 + GFRα3)
T1 sequence (P07949 29-1114): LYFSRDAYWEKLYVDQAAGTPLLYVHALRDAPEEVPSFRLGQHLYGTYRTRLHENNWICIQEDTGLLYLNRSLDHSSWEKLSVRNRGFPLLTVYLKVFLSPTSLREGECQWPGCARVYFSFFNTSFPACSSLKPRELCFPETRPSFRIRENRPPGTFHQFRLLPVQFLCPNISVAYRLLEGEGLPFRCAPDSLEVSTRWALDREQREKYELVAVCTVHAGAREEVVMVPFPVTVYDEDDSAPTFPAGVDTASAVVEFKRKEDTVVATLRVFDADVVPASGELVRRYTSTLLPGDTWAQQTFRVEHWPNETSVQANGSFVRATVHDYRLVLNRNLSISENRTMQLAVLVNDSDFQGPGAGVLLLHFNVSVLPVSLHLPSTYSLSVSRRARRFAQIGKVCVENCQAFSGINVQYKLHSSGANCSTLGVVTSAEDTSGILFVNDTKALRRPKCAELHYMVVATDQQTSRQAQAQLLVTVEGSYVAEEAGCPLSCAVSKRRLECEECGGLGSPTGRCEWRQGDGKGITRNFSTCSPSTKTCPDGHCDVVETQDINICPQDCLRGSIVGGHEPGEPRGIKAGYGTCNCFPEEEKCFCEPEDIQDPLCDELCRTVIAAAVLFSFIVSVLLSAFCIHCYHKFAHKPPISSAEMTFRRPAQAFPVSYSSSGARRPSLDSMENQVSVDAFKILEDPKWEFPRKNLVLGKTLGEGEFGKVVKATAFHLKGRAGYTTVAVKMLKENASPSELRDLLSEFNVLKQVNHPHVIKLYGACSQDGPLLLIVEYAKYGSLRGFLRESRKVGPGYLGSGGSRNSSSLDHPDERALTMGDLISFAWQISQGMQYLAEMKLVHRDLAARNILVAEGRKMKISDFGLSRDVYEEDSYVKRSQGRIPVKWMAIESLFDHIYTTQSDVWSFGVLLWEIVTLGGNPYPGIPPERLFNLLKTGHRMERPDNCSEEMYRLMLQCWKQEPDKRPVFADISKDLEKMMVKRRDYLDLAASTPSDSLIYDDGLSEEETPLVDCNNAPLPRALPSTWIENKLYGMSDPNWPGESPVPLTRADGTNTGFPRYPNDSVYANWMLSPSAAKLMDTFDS

CYP3A4 = target: T2, CYP3A4 (Homo sapiens, UniProt P08684); assay: CYP inhibition, fluorescent assay; type: biochemical; details: read-out: Inhibition of CYP isoforms (IC50), CYP3A4
T2 construct: Cyathus Exquirere (contract laboratory)
T2 sequence (P08684 whole entry, canonical isoform): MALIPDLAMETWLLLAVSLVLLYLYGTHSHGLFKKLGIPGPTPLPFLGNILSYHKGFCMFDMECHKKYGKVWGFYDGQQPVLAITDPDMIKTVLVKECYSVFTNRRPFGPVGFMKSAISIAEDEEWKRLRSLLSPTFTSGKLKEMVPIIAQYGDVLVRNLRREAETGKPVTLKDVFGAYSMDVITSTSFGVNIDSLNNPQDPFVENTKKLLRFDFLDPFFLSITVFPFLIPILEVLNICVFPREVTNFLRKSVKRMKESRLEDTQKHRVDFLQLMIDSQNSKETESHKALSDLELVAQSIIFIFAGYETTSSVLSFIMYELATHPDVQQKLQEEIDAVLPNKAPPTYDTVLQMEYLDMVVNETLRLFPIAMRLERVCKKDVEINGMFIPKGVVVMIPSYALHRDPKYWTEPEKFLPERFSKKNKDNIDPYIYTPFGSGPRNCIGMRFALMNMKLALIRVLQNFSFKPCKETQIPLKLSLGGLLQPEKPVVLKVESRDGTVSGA

[3] = target: T3, opioid receptor kappa (KOP) (Rattus norvegicus, UniProt P34975); assay: CEREP Kappa (KOP) (agonist radioligand); type: binding; details: BT13 1 μM; Cat. No. 1971; average of duplicate; read-out: Percentage of inhibition/potentiation from control
T3 construct: purchased CEREP (contract assay) 1971
T3 sequence (P34975 whole entry): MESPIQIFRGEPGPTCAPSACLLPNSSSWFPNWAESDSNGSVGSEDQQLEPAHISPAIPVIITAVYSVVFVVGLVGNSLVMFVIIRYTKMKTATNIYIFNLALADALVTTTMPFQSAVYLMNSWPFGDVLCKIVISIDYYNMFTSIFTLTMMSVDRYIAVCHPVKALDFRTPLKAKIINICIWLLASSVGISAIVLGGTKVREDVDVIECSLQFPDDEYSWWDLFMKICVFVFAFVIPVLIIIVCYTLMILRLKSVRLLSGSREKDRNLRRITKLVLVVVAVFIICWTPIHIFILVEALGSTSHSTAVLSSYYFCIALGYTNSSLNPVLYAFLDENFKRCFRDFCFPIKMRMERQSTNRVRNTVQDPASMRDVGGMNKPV

[4] = tested on: Akt and Erk phosphorylation in MG87TrkA; assay: Erk1/2 and Akt phosphorylation assay in MG87TrkA cells; type: cell-based, murine; details: BT13 10–100 μM, NGF positive control
Protocol: MG87RET, MG87TrkA, or MG87TrkB were plated on 35 mm tissue culture dishes 1–2 days before the experiment to achieve 90–95% of confluency of the cells at the day of stimulation with tested substances. If necessary, cells were transfected with 4 μg/well of GFRα1-, GFRα3-, or green fluorescent protein (GFP)-expressing plasmid using Lipofectamine 2000 (Invitrogen) for DNA delivery as described by manufacturer. Before the experiment cells were starved in serum-free DMEM containing 15 mM HEPES, pH 7.2 and 1% DMSO for 4 h and stimulated with BT13 or neurotrophic factors. Then cells were washed once with ice-cold PBS containing 1 mM Na3VO4 and 1 mM NaF and lysed on ice in 1 ml per well of RIPA-modified buffer (50 mM Tris-HCl, pH 7.4, 150 mM NaCl, 1 mM EDTA, 1% NP-40, 1% TX-100, 10% glycerol, EDTA-free protease inhibitor cocktail (Roche), 1 mM Na3VO4, 2.5 mg/ml of sodium deoxycholate, 1 mM NaF). Plates were incubated at +4°C on the horizontal shaker for 30 min with vigorous shaking. Afterwards, 80–100 μl aliquot was taken from each well to prepare whole cell lysates. This aliquot was mixed with equal volume of 2x Laemmli loading buffer (4% SDS, 20% glycerol, 10% 2-mercaptoethanol, 0.004% bromphenol blue, 0.125 M Tris HCl, pH 6.8) and boiled for 10 min at 100°C. Remaining cell lysates were used for immunoprecipitation of RET or Trk receptors. […]

[5] = Plasma stability, rat plasma; type: in vitro ADME; details: read-out: Plasma stability (% remaining after 1 h)
adenosine receptor A2B = target: T4, adenosine receptor A2B (Homo sapiens, UniProt P29275); assay: CEREP A2B (h) (antagonist radioligand); type: binding; details: BT13 1 μM; Cat. No. 0005; average of duplicate; read-out: Percentage of inhibition/potentiation from control
T4 construct: purchased CEREP (contract assay) Cat# 0005
T4 sequence (P29275 whole entry): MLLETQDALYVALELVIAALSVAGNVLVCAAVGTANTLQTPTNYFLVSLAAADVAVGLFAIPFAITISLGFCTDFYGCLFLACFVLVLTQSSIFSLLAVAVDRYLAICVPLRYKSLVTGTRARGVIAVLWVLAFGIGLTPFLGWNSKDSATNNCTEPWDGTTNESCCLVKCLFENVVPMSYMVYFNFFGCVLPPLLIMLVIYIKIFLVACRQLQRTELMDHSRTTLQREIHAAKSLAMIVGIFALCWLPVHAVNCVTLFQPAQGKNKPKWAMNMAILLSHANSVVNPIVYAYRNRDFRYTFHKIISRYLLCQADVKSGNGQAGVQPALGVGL

[6] = Metabolic stability in liver microsomes; type: in vitro ADME; details: 0.5 mg/ml rat liver microsomes; read-out: Microsomal stability (% remaining in 30 min)
[7] = target: cholecystokinin receptor CCK2 (CCKB) (Homo sapiens, UniProt P32239); assay: CEREP CCK2 (CCKB) (h) (agonist radioligand); type: binding; details: BT13 1 μM; Cat. No. 0041; average of duplicate; read-out: Percentage of inhibition/potentiation from control
Sequence of cholecystokinin receptor CCK2 (CCKB) (P32239 whole entry): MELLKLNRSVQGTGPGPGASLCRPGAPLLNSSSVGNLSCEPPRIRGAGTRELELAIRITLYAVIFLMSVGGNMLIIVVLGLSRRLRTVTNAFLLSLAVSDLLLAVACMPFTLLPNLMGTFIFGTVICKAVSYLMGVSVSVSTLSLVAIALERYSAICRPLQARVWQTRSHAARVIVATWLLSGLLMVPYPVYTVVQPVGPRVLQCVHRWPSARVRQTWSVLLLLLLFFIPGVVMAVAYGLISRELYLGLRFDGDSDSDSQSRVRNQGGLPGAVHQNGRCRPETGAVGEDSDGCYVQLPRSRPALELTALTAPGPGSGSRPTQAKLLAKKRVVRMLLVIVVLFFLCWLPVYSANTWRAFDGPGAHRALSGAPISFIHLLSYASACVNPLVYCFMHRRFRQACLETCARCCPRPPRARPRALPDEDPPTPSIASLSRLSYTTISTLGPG

GFRα1/RET = target: T5, GFRα1/RET (Homo sapiens, UniProt P07949); assay: Luciferase reporter-gene assay (PathDetect Elk-1), GFRα1/RET reporter cells; type: cell-based; details: GFRα1/RET reporter cell line
T5 construct: full-length human RET (long isoform) in pCR3.1; expressed in transfected cells; host or cells: MG87 murine fibroblasts (MG87RET + PathDetect Elk-1 + GFRα1)
T5 sequence (P07949 29-1114): as the sequence (P07949 29-1114) above

[8] = target: T6, GDNF receptor complexes (cells overexpressing GFRα1/RET) (Homo sapiens, UniProt P07949); assay: Displacement of 125I-GDNF; type: binding; details: BT13 50 μM; n = 5
T6 construct: full-length human RET (long isoform) in pCR3.1; expressed in transfected cells
T6 sequence (P07949 29-1114, one chain of several): as the sequence (P07949 29-1114) above

neurokinin receptor NK3 = neurokinin receptor NK3 (Homo sapiens, UniProt P29371); assay: CEREP NK3 (h) (antagonist radioligand); type: binding; details: read-out: Percentage of inhibition/potentiation from control
Sequence of neurokinin receptor NK3 (P29371 whole entry): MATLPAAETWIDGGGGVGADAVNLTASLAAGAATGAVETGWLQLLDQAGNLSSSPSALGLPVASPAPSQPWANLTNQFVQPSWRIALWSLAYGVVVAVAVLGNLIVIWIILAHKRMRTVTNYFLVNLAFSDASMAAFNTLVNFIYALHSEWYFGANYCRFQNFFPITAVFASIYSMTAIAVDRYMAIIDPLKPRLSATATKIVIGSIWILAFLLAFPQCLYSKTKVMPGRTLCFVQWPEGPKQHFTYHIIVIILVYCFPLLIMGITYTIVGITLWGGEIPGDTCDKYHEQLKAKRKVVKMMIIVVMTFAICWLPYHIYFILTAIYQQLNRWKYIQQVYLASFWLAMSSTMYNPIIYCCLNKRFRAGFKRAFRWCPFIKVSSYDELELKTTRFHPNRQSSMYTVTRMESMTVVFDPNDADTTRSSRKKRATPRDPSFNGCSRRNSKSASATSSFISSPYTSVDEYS

[9] = target: T7, serotonin receptor 5-HT1D (Rattus norvegicus, UniProt P28565); assay: CEREP 5-HT1D (agonist radioligand); type: binding; details: BT13 1 μM; Cat. No. 1974; average of duplicate; read-out: Percentage of inhibition/potentiation from control
T7 construct: purchased CEREP (contract assay) 1974
T7 sequence (P28565 whole entry): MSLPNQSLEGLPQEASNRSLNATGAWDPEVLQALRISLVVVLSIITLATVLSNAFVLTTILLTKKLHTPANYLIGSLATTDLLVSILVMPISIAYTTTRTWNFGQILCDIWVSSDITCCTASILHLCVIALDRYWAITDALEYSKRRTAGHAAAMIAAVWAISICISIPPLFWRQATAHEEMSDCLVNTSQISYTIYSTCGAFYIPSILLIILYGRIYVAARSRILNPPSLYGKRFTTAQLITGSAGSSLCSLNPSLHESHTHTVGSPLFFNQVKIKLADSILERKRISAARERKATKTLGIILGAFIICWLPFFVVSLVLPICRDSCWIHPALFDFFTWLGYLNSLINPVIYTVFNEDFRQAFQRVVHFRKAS

[10] = 0.1–50 μM, read-out: EC50, luciferase activation

Sequence of opioid receptor delta (DOP) (P41143 whole entry, canonical isoform): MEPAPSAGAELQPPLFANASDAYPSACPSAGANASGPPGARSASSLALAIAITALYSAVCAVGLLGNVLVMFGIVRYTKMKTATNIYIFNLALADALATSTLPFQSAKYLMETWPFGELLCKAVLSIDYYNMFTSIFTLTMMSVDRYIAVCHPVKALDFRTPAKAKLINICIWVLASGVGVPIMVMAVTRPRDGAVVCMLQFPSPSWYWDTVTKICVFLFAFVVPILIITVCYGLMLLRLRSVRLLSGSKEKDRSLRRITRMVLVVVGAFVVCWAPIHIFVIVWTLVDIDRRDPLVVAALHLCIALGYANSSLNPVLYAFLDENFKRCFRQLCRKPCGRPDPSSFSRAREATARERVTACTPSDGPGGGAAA

Which results are given for CCN(CC)S(=O)(=O)c1ccc(OC)c(N2CCN(C(=O)c3ccc(F)cc3C(F)(F)F)CC2)c1 [BT13]?
inhibition at 1 µM [1]: 3%; IC50 (CYP1A2): > 100 µM; inhibition at 1 µM (dopamine transporter): 6%; phosphorylation of RET downstream targets Akt and Erk [2]: elicited phosphorylation; efficacy, fold induction of luciferase above baseline (GFRα3/RET): 8.9 fold; EC50 (GFRα3/RET; [10]): 20.5 µM; IC50 (CYP3A4): 3.2 ± 0.42 µM; inhibition at 1 µM [3]: 0%; Akt and Erk phosphorylation [4]: no Akt or Erk phosphorylation was observed; remaining at 1 h [5]: 108 ± 7.3%; inhibition at 1 µM (adenosine receptor A2B): -14%; remaining at 0.5 h [6]: 2.8 ± 0.1%; inhibition at 1 µM [7]: 1%; efficacy, fold induction of luciferase above baseline (GFRα1/RET): 11.6 fold; EC50 (GFRα1/RET; [10]): 17.4 µM; reduction of 125I-GDNF binding [8]: 25 ± 10.2%; inhibition at 1 µM (neurokinin receptor NK3): 0%; inhibition at 1 µM [9]: 1%
